Source: patent US20240270751A1, “Pyrazolopyridinone Compounds” (BeiGene Ltd., priority 2021, published 2024)

Experiments:
DGKζ = DGKζ (Homo sapiens (Human), UniProt Q13574); assay: Biochemical DGK IC50 assay, DGKζ ADP-Glo assay; settings: 0.5 nM enzyme, 140 μM ATP, 80 μM DAG; read-out: DGKζ ADP-Glo assay IC50
Outline: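 ADP formation measured by ADP-Glo luminescence, with test compounds at final 1.55–10000 nM or 23.3–150000 nM. Enzyme: purified full-length human DGKζ from Sf9 insect cells; substrate: DAG/PS micelles in 25 mM HEPES pH 7.0, 0.5 mM EDTA, octyl glucoside.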

DGKα = DGKα (Homo sapiens (Human), UniProt P23743); assay: Biochemical DGK IC50 assay, DGKα ADP-Glo assay; settings: 7.5 nM enzyme, 140 μM ATP, 80 μM DAG
Outline: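 Compounds at final 1.55˜10000 nM or 23.3˜150000 nM were tested against full-length DGKα. Substrate was lipid micelles of DAG and PS resuspended in 25 mM HEPES pH 7.0 with 0.5 mM EDTA and 160 mM octyl β-D-glucopyranoside. ADP formed was detected by ADP-Glo.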

Sequence of DGKα (P23743 whole entry): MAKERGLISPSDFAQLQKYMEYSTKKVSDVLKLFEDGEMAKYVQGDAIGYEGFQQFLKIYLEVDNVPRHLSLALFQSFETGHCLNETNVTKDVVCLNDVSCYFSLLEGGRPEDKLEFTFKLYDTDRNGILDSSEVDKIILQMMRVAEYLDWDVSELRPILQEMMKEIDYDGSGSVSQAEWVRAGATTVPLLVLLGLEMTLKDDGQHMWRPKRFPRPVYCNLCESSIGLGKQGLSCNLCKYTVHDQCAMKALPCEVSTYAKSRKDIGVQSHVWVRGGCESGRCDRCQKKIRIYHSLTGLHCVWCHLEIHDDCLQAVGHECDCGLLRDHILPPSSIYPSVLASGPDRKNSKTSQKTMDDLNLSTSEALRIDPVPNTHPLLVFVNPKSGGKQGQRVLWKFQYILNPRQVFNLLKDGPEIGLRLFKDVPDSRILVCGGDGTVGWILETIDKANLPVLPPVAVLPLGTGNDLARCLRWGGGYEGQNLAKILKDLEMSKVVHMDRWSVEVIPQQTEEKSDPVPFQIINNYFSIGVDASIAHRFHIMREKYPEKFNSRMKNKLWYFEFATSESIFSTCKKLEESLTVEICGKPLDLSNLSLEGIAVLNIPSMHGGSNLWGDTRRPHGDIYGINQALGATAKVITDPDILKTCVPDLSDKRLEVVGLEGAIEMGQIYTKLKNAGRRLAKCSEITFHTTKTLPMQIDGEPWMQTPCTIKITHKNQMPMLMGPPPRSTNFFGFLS
Sequence of DGKζ (Q13574 other isoform, or with tags, fused parts or gaps): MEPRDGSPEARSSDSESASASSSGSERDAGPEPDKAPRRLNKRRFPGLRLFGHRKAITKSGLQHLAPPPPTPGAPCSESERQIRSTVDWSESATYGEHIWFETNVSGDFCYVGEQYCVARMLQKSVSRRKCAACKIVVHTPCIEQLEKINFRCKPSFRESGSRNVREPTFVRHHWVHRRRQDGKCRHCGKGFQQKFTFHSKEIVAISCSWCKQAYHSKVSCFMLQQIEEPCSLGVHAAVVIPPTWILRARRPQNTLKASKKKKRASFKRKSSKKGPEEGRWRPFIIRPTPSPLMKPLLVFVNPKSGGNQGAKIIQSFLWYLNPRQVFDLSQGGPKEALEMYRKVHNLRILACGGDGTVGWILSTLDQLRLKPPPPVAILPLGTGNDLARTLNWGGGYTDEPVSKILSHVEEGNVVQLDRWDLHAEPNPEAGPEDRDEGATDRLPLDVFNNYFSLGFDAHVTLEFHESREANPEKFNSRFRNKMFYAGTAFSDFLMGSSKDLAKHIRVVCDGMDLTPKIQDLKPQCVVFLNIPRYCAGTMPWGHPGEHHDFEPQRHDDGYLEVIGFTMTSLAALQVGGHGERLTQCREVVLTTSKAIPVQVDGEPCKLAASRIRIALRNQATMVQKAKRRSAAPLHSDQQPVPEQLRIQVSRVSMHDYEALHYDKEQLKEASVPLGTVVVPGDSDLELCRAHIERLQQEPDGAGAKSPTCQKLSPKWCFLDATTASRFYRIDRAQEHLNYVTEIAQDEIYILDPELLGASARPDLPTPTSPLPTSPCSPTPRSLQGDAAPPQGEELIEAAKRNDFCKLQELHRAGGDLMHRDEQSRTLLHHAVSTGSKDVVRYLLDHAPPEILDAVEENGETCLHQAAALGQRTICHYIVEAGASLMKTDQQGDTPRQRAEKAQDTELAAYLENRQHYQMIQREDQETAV

IC50 (DGKζ)	IC50 (DGKα)	SMILES
317 nM	61900 nM	CC[C@H]1CN(C(C)c2ncc(F)cc2C(F)(F)F)[C@H](CC)CN1c1cc(=O)n(C)c2cn(CC#N)nc12 (stereo partly drawn) [Compound A136, 2-(7-((2S,5R)-2,5-diethyl-4-(1-(5-fluoro-3-(trifluoromethyl)pyridin-2-yl)ethyl)piperazin-1-yl)-4-methyl-5-oxo-4,5-dihydro-2H-pyrazolo[4,3-b]pyridin-2-yl)acetonitrile]
106 nM	> 10000 nM	CC[C@@H]1CN(c2cc(=O)n(C)c3cn(CC#N)nc23)[C@@H](C)CN1C(C)c1ccc(F)cc1OC (stereo partly drawn) [Compound A137, 2-(7-((2S,5R)-5-ethyl-4-(1-(4-fluoro-2-methoxyphenyl)ethyl)-2-methylpiperazin-1-yl)-4-methyl-5-oxo-4,5-dihydro-2H-pyrazolo[4,3-b]pyridin-2-yl)acetonitrile]
480 nM	1280 nM	CC[C@H]1CN(C(C)c2ccc3c(c2)NCCO3)[C@H](CC)CN1c1cc(=O)n(C)c2cn(CC#N)nc12 (stereo partly drawn) [Compound A138]
189 nM	82 nM	CC[C@H]1CN(C(C)c2ccc(OC(C)C)cn2)[C@H](CC)CN1c1cc(=O)n(C)c2cn(CC#N)nc12 (stereo partly drawn) [Compound A140]
696 nM	6630 nM	CCOc1cc(F)ccc1C(C)N1C[C@H](CC)N(c2cc(=O)n(C)c3cn(CC#N)nc23)C[C@H]1CC (stereo partly drawn) [Compound A141]
1220 nM	6580 nM	CC[C@H]1CN(C(C)c2ccc(F)cc2OC(C)C)[C@H](CC)CN1c1cc(=O)n(C)c2cn(CC#N)nc12 (stereo partly drawn) [Compound A142]
253 nM	> 10000 nM	COC[C@H]1CN(C(C)c2ccc3nccnc3c2)[C@H](C)CN1c1cc(=O)n(C)c2cn(CC#N)nc12 (stereo partly drawn) [Compound A143, 2-(7-((2R,5R)-2-(methoxymethyl)-5-methyl-4-(1-(quinoxalin-6-yl)ethyl)piperazin-1-yl)-4-methyl-5-oxo-4,5-dihydro-2H-pyrazolo[4,3-b]pyridin-2-yl)acetonitrile]
42 nM	105000 nM	CC[C@H]1CN(C(C)c2nc3ccccc3n2CC)[C@H](CC)CN1c1cc(=O)n(C)c2cn(CC#N)nc12 (stereo partly drawn) [Compound A144, 2-(7-((2S,5R)-2,5-diethyl-4-(1-(1-ethyl-1H-benzo[d]imidazol-2-yl)ethyl)piperazin-1-yl)-4-methyl-5-oxo-4,5-dihydro-2H-pyrazolo[4,3-b]pyridin-2-yl)acetonitrile]
55 nM	20300 nM	CC(c1ccc2nccnc2c1)N1C[C@H](CCO)N(c2cc(=O)n(C)c3cn(CC#N)nc23)C[C@H]1C (stereo partly drawn) [Compound A145, 2-(7-((2S,5R)-2-(2-hydroxyethyl)-5-methyl-4-(1-(quinoxalin-6-yl)ethyl)piperazin-1-yl)-4-methyl-5-oxo-4,5-dihydro-2H-pyrazolo[4,3-b]pyridin-2-yl)acetonitrilecetonitrile]
190 nM	34 nM	CC[C@H]1CN(C(C)c2ncc(F)cc2F)[C@H](CC)CN1c1cc(=O)n(C)c2cn(CC#N)nc12 (stereo partly drawn) [Compound A148]
2040 nM	> 10000 nM	CC[C@H]1CN(C(C)c2cccc(CN(C)C)c2)[C@H](CC)CN1c1cc(=O)n(C)c2cn(CC#N)nc12 (stereo partly drawn) [Compound A151]
1770 nM	4380 nM	CC[C@H]1CN(C(C)c2ccc(F)cc2CO)[C@H](CC)CN1c1cc(=O)n(C)c2cn(CC#N)nc12 (stereo partly drawn) [Compound A152, 2-(7-((2S,5R)-2,5-diethyl-4-(1-(4-fluoro-2-(hydroxymethyl)phenyl)ethyl)piperazin-1-yl)-4-methyl-5-oxo-4,5-dihydro-2H-pyrazolo[4,3-b]pyridin-2-yl)acetonitrile]
18 nM	1750 nM	CC[C@@H]1CN(c2c(C#N)c(=O)n(C)c3cn(CC#N)nc23)[C@@H](C)CN1C(C)c1ccc2nccnc2c1 (stereo partly drawn) [Compound A156, 2-(cyanomethyl)-7-((2S,5R)-5-ethyl-2-methyl-4-(1-(quinoxalin-6-yl)ethyl)piperazin-1-yl)-4-methyl-5-oxo-4,5-dihydro-2H-pyrazolo[4,3-b]pyridine-6-carbonitrile]
1030 nM	2990 nM	CC[C@H]1CN(C(C)c2ccc(C(F)(F)F)cc2OC)[C@H](CC)CN1c1cc(=O)n(C)c2cn(CC#N)nc12 (stereo partly drawn) [Compound A157]
381 nM	> 10000 nM	CC(c1ccc2nccnc2c1)N1C[C@H](CC#N)N(c2cc(=O)n(C)c3cn(CC#N)nc23)C[C@H]1C (stereo partly drawn) [Compound A158, 2-((2S,5R)-1-(2-(cyanomethyl)-4-methyl-5-oxo-4,5-dihydro-2H-pyrazolo[4,3-b]pyridin-7-yl)-5-methyl-4-(1-(quinoxalin-6-yl)ethyl)piperazin-2-yl)acetonitrile]
30 nM	190 nM	CC[C@H]1CN(C(C)c2ccc3c(n2)OCCO3)[C@H](CC)CN1c1cc(=O)n(C)c2cn(CC#N)nc12 (stereo partly drawn) [Compound A159, 2-(7-((2S,5R)-4-(1-(2,3-dihydro-[1,4]dioxino[2,3-b]pyridin-6-yl)ethyl)-2,5-diethylpiperazin-1-yl)-4-methyl-5-oxo-4,5-dihydro-2H-pyrazolo[4,3-b]pyridin-2-yl)acetonitrile]
247 nM	52 nM	CC[C@H]1CN(C(C)c2ccc(OC(C)C)cc2)[C@H](CC)CN1c1cc(=O)n(C)c2cn(CC#N)nc12 (stereo partly drawn) [Compound A160]
4420 nM	> 10000 nM	CC[C@H]1CN(C(C)c2ccc(F)cc2NC)[C@H](CC)CN1c1cc(=O)n(C)c2cn(CC#N)nc12 (stereo partly drawn) [Compound A163]
72 nM	8970 nM	COCC[C@H]1CN(C(C)c2ccc3nccnc3c2)[C@H](C)CN1c1cc(=O)n(C)c2cn(CC#N)nc12 (stereo partly drawn) [Compound A164, 2-(7-((2S,5R)-2-(2-methoxyethyl)-5-methyl-4-(1-(quinoxalin-6-yl)ethyl)piperazin-1-yl)-4-methyl-5-oxo-4,5-dihydro-2H-pyrazolo[4,3-b]pyridin-2-yl)acetonitrile]
2840 nM	> 10000 nM	CC[C@H]1CN(C(C)c2ccccc2NC(C)=O)[C@H](CC)CN1c1cc(=O)n(C)c2cn(CC#N)nc12 (stereo partly drawn) [Compound A165]
2380 nM	> 10000 nM	CC[C@H]1CN(C(C)c2ccc3c(n2)OCCN3C)[C@H](CC)CN1c1cc(=O)n(C)c2cn(CC#N)nc12 (stereo partly drawn) [Compound A166, 2-(7-((2S,5R)-2,5-diethyl-4-(1-(1-methyl-2,3-dihydro-1H-pyrido[2,3-b][1,4]oxazin-6-yl)ethyl)piperazin-1-yl)-4-methyl-5-oxo-4,5-dihydro-2H-pyrazolo[4,3-b]pyridin-2-yl)acetonitrile]
1020 nM	> 10000 nM	CC[C@H]1CN(C(C)c2ccc3nccnc3c2)[C@H](CC)CN1c1cc(=O)n(CC2CC2)c2cn(CC#N)nc12 (stereo partly drawn) [Compound A167]
28 nM	6080 nM	CC(c1ccc2nccnc2c1)N1C[C@H](C)N(c2c(F)c(=O)n(C)c3cn(CC#N)nc23)C[C@H]1C (stereo partly drawn) [Compound A168, 2-(7-((2S,5R)-2,5-dimethyl-4-(1-(quinoxalin-6-yl)ethyl)piperazin-1-yl)-6-fluoro-4-methyl-5-oxo-4,5-dihydro-2H-pyrazolo[4,3-b]pyridin-2-yl)acetonitrile]

SMILES	IC50 (DGKζ)	IC50 (DGKα)
CC(c1ccc2nccnc2c1)N1C[C@H](C)N(c2nc(=O)n(C)c3cn(CC#N)nc23)C[C@H]1C (stereo partly drawn) [Compound A154, 2-(7-((2S,5R)-2,5-dimethyl-4-(1-(quinoxalin-6-yl)ethyl)piperazin-1-yl)-4-methyl-5-oxo-4,5-dihydro-2H-pyrazolo[4,3-d]pyrimidin-2-yl)acetonitrile]	104 nM	9210 nM
